Here are results for 22 compounds from patent US10189845B2, “4,6-substituted-pyrazolo[1,5-a]pyrazines as janus kinase inhibitors” (ARRAY BIOPHARMA INC., priority 2014, dated 2019).

What all share (format): biochemical
One assay has as its target JAK1 (Homo sapiens (Human), UniProt P23458). Nature of the assay: JAK1 Inhibition Assay (Example B, Omnia kinase fluorescence peptide substrate assay). An excerpt: (§1) The assays described in Examples A, B, C and D for the determination of Tyk2, JAK1, JAK2 and JAK3 kinase activity, respectively, utilized the Omnia® Kinase fluorescence peptide substrate-based technology (Invitrogen). The specific components of the assay mixture are described in Examples A, B, C and D. In these assays, Mg^2+ is chelated upon phosphorylation of the Omnia peptide by the kinase to form a bridge between the chelation-enhanced fluorophore Sox and the phosphate, resulting in an increase in fluorescence emission at 485 nm when excited at […]. The reactions were therefore read at excitation 360 nm and emission was measured at 485 nm every 50 seconds for 45 minutes using a PerkinElmer EnVision Multilabel Plate Reader.
(§2) The final buffer conditions for Tyk2, JAK1, JAK2, and JAK3 assays were as follows: 25 mM HEPES, pH 7.4, 10 mM MgCl2, 0.01% Triton X-100 and 1 mM DTT.
(§3) Two-μL aliquots of these were transferred to a fresh plate for a ten-fold intermediate dilution with assay buffer. Five-μL aliquots of the diluted compounds were then transferred to 20-μL of assay mixtures described in Examples A, B, C and D for a final concentration of DMSO of 2%. […] For each plate, percent of control (POC) values were calculated for each well according to the following equation: […]
(§4) IC50's were estimated from the POC's using a standard 4-parameter logistic model:
(§5) The IC50 is defined as the concentration of inhibitor at which the POC equals 50 for the fitted curve.
Compounds of Formula I were screened for their ability to inhibit JAK1 using the general enzyme inhibition assay method, in which the assay mixture contained 1 mM ATP, 8 μM Omnia® Y12 peptide (Catalog # IVGN KPZ3121C; Invitrogen Corporation, Carlsbad, Calif.) and 12.5 nM JAK1 in a total volume of 25 μL. JAK1 was purchased from Invitrogen Corporation, Carlsbad, Calif. (catalog # IVGN PV4775).

The next assay deals with JAK3 (Homo sapiens (Human), UniProt P52333). The assay can be described thus: JAK3 Inhibition Assay (Example D, Omnia kinase fluorescence peptide substrate assay).
JAK3, sequence (P52333 whole entry): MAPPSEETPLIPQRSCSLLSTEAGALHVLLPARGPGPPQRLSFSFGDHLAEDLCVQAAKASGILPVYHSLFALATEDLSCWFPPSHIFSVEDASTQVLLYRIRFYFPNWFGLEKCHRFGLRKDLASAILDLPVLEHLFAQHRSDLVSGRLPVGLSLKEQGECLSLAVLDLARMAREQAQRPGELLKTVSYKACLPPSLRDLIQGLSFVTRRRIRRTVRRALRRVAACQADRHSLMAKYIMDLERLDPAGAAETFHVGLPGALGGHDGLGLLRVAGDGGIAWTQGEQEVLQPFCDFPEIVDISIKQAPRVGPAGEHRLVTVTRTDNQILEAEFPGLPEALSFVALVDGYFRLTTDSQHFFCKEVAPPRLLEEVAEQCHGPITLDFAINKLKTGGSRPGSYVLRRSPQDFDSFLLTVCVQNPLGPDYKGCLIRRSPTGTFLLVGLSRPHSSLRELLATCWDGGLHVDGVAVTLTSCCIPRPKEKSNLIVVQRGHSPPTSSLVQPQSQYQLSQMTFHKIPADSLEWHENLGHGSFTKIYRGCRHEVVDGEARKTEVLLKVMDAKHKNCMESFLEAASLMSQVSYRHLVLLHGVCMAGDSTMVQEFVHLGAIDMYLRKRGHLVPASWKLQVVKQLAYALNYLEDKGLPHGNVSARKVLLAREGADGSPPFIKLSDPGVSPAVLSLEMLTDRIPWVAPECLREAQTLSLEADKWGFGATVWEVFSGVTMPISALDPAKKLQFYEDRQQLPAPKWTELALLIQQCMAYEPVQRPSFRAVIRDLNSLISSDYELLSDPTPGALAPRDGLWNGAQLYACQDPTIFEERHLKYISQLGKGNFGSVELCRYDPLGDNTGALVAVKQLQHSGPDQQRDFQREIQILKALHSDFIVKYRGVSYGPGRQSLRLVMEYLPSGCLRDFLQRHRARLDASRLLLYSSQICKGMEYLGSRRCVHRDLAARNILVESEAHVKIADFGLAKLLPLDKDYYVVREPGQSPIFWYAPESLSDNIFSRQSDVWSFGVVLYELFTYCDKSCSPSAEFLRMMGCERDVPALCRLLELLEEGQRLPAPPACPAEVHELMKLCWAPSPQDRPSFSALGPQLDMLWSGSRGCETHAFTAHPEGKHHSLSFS
Source text: as §1, §2, §3, §4, §5
Compounds of Formula I were screened for their ability to inhibit JAK3 using the general enzyme inhibition assay method, in which the assay mixture contained 1 mM ATP, 10 μM Omnia® Y7 peptide (Catalog # IVGN KNZ3071C, Invitrogen Corporation, Carlsbad, Calif.) and 2 nM JAK3 in a total volume of 25 μL. JAK3 was purchased from Invitrogen Corporation, Carlsbad, Calif. (catalog # IVGN PV4080).

The target in a further assay is Human Tyk2 kinase domain (Homo sapiens (Human), UniProt P29597). The assay can be described thus: Tyk2 Inhibition Assay (Example A, Omnia kinase fluorescence peptide substrate assay). Conditions: TYK2 Enzyme IC50 1 mM ATP, averaged IC50 ranges.
Human Tyk2 kinase domain, sequence (P29597 886-1187): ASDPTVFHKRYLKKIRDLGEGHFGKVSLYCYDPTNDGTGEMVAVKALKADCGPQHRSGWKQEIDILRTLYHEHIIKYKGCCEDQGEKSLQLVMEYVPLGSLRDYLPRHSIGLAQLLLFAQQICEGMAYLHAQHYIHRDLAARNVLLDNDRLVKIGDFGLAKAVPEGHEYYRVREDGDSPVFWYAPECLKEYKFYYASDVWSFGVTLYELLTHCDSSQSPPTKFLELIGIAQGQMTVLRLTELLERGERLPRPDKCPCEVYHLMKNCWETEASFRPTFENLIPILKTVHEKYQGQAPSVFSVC
Source text: as §1, §2, §3, §4, §5
Compounds of Formula I were screened for their ability to inhibit Tyk2 using the general enzyme inhibition assay method, in which the assay mixture contained 1 mM ATP, 8 μM Omnia Y12 peptide (Catalog # IVGN KPZ3121C; Invitrogen Corporation, Carlsbad, Calif.) and 1 nM Tyk2 in a total volume of 25 μL. Human Tyk2 kinase domain, comprising amino acids 886 to 1187 with 10 additional histidine residues (histidine tag) on the carboxy terminus, was expressed and purified from bacculovirus in-house at Array BioPharma Inc. (Boulder, Colo.). The histidine tag was cleaved after purification using standard conditions.

Where [1] appears, read: JAK1 Enzyme IC50 1 mM ATP, 1 mM ATP, averaged IC50 ranges.

Read-outs that look alike come from different tables or passages of the source.

JAK1, sequence (P23458 whole entry): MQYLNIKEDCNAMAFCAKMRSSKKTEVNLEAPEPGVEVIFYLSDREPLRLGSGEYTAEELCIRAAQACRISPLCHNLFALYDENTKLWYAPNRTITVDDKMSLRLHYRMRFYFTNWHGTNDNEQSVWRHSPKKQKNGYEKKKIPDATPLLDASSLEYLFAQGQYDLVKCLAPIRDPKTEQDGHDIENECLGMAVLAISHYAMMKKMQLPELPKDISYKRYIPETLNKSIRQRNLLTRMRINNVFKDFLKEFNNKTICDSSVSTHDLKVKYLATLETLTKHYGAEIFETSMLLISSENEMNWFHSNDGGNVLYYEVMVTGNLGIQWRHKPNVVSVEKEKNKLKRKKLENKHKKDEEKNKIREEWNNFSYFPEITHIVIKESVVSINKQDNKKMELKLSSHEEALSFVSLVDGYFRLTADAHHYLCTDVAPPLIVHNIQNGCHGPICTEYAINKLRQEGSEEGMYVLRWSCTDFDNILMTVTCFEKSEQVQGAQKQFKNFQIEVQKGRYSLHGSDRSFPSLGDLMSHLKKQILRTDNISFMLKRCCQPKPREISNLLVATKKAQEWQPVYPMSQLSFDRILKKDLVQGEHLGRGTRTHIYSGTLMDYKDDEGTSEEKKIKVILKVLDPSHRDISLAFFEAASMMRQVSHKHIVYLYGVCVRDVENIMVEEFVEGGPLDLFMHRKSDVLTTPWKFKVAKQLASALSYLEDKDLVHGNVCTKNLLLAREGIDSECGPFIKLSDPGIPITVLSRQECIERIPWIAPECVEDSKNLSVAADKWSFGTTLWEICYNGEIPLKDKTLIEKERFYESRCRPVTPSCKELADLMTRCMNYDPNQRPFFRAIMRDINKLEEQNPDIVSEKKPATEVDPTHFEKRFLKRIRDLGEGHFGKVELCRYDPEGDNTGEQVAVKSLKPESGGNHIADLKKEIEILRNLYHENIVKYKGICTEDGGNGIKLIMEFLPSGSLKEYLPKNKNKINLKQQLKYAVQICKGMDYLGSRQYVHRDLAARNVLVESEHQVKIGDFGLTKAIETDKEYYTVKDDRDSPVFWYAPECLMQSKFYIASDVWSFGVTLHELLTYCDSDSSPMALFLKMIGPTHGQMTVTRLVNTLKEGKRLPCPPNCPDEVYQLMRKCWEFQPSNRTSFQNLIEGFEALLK

In general, IC50 refers to the midpoint of a concentration-inhibition curve. Read a high IC50 as weaker potency. The compound `CCC(CC)n1cc(-c2nc(-c3cnn([C@@H]4COC[C@H]4O)c3)cn3nccc23)cn1` (single isomer, unassigned) [Example 159] registered an IC50 at JAK1 of 100 to 1000 nM.
In the case of `CCC(CC)n1cc(-c2nc(-c3cnn([C@H]4COC[C@@H]4O)c3)cn3nccc23)cn1` (single isomer, unassigned) [Example 160], on JAK1, the IC50 is 1000 to 10000 nM.
Turning to `CCC(C1CC1)n1cc(-c2nc(-c3cnn(C[C@@H](O)CO)c3)cn3nccc23)cn1` (single isomer, unassigned) [Example 213], the IC50 lay within 1000 to 10000 nM against JAK3, 10 to 100 nM against Human Tyk2 kinase domain and 100 to 1000 nM on JAK1.
In turn, `CCC(CC)n1cc(-c2nc(-c3cnn(CC4CNC(=O)O4)c3)cn3nccc23)cn1` (centres unmarked) [Example 8, 5-((4-(4-(1-(pentan-3-yl)-1H-pyrazol-4-yl)pyrazolo[1,5-a]pyrazin-6-yl)-1H-pyrazol-1-yl)methyl)oxazolidin-2-one] yielded an IC50 against JAK3 of 1000 to 10000 nM.
Turning to `CCC(CC)n1cc(-c2nc(-c3cnn(C4CS(=O)(=O)C4)c3)cn3nccc23)cn1` [Example 13, 3-(4-(4-(1-(pentan-3-yl)-1H-pyrazol-4-yl)pyrazolo[1,5-a]pyrazin-6-yl)-1H-pyrazol-1-yl)thietane 1,1-dioxide], the IC50 against JAK3 was 1000 to 10000 nM; against Human Tyk2 kinase domain, 10 to 100 nM; on JAK1, 100 to 1000 nM.
As to `CCC(CC)n1cc(-c2nc(-c3cnn(CCS(N)(=O)=O)c3)cn3nccc23)cn1` [Example 24, 2-(4-(4-(1-(pentan-3-yl)-1H-pyrazol-4-yl)pyrazolo[1,5-a]pyrazin-6-yl)-1H-pyrazol-1-yl)ethanesulfonamide], the IC50 was 1000 to 10000 nM against JAK3 and 100 to 1000 nM at JAK1.
The like results for `CCC(CC)n1cc(-c2nc(-c3cnn(C[C@H]4CCCN4)c3)cn3nccc23)cn1` [Example 27, (R)-4-(1-(pentan-3-yl)-1H-pyrazol-4-yl)-6-(1-(pyrrolidin-2-ylmethyl)-1H-pyrazol-4-yl)pyrazolo[1,5-a]pyrazine] were, in that order, 1000 to 10000 nM and 1000 to 10000 nM.
For the compound `CCC(CC)n1cc(-c2nc(-c3cnn(C[C@@H]4CCCN4)c3)cn3nccc23)cn1` [Example 28, (S)-4-(1-(pentan-3-yl)-1H-pyrazol-4-yl)-6-(1-(pyrrolidin-2-ylmethyl)-1H-pyrazol-4-yl)pyrazolo[1,5-a]pyrazine], the concentration for half-maximal inhibition (IC50) at JAK3 and against JAK1 was 1000 to 10000 nM each time.
For `CCC(CC)n1cc(-c2nc(-c3cnn(C4CCN(C(C)=O)CC4)c3)cn3nccc23)cn1` [Example 31, 1-(4-(4-(4-(1-(pentan-3-yl)-1H-pyrazol-4-yl)pyrazolo[1,5-a]pyrazin-6-yl)-1H-pyrazol-1-yl)piperidin-1-yl)ethanone], the IC50 on JAK3 is 1000 to 10000 nM; at Human Tyk2 kinase domain, 10 to 100 nM; on JAK1, 100 to 1000 nM.
On to `CCC(CC)n1cc(-c2nc(-c3cnn(C4CCN(S(C)(=O)=O)CC4)c3)cn3nccc23)cn1` [Example 32, 6-(1-(1-(methylsulfonyl)piperidin-4-yl)-1H-pyrazol-4-yl)-4-(1-(pentan-3-yl)-1H-pyrazol-4-yl)pyrazolo[1,5-a]pyrazine], for which the IC50 against JAK3 fell in the range of 1000 to 10000 nM; at JAK1, 10 to 100 nM.
In the case of `CCC(CC)n1cc(-c2nc(-c3cnn(C4CCN(C(=O)COC)CC4)c3)cn3nccc23)cn1` [Example 33, 2-methoxy-1-(4-(4-(4-(1-(pentan-3-yl)-1H-pyrazol-4-yl)pyrazolo[1,5-a]pyrazin-6-yl)-1H-pyrazol-1-yl)piperidin-1-yl)ethanone], the IC50 lay within 1000 to 10000 nM against JAK3 and 100 to 1000 nM against JAK1.
Regarding `CCC(CC)n1cc(-c2nc(-c3cnn(C4CCN(C(=O)NC)CC4)c3)cn3nccc23)cn1` [Example 34, N-methyl-4-(4-(4-(1-(pentan-3-yl)-1H-pyrazol-4-yl)pyrazolo[1,5-a]pyrazin-6-yl)-1H-pyrazol-1-yl)piperidine-1-carboxamide], the IC50 lay within 1000 to 10000 nM at JAK3, 10 to 100 nM on Human Tyk2 kinase domain and 10 to 100 nM against JAK1.
As for `CCC(CC)n1cc(-c2nc(-c3cnn(C4CCN(C(=O)CN)CC4)c3)cn3nccc23)cn1` [Example 36, 2-amino-1-(4-(4-(4-(1-(pentan-3-yl)-1H-pyrazol-4-yl)pyrazolo[1,5-a]pyrazin-6-yl)-1H-pyrazol-1-yl)piperidin-1-yl)ethanone], the IC50 against JAK3 is 1000 to 10000 nM; against JAK1, 100 to 1000 nM.
`CCC(CC)n1cc(-c2nc(-c3cnn(C4CN(S(C)(=O)=O)C4)c3)cn3nccc23)cn1` [Example 37, 6-(1-(1-(methylsulfonyl)azetidin-3-yl)-1H-pyrazol-4-yl)-4-(1-(pentan-3-yl)-1H-pyrazol-4-yl)pyrazolo[1,5-a]pyrazine]: the concentration for half-maximal inhibition (IC50) against JAK3 lay within 1000 to 10000 nM; on Human Tyk2 kinase domain, 10 to 100 nM; against JAK1, 100 to 1000 nM.
As to `CCC(CC)n1cc(-c2nc(-c3cnn(C4CN(C(C)=O)C4)c3)cn3nccc23)cn1` [Example 38, 1-(3-(4-(4-(1-(pentan-3-yl)-1H-pyrazol-4-yl)pyrazolo[1,5-a]pyrazin-6-yl)-1H-pyrazol-1-yl)azetidin-1-yl)ethanone], the IC50 on JAK3 is 1000 to 10000 nM; at JAK1, 100 to 1000 nM.
Take `CCC1(n2cc(-c3nc(-c4cnn(C)c4)cn4nccc34)cn2)CN(S(=O)(=O)C(F)(F)F)C1` [Example 48, 4-(1-(3-ethyl-1-((trifluoromethyl)sulfonyl)azetidin-3-yl)-1H-pyrazol-4-yl)-6-(1-methyl-1H-pyrazol-4-yl)pyrazolo[1,5-a]pyrazine]: the IC50 lay in the range of 1000 to 10000 nM on JAK3 and 10 to 100 nM at JAK1.
Consider `CCC(CC)n1cc(-c2nc(-c3cnn(CC(CO)CO)c3)cn3nccc23)cn1` [Example 61, 2-((4-(4-(1-(pentan-3-yl)-1H-pyrazol-4-yl)pyrazolo[l,5-a]pyrazin-6-yl)-1H-pyrazol-1-yl)methyl)propane-1,3-diol], for which the IC50 at JAK3 fell in the range of 1000 to 10000 nM; on JAK1 (setting [1]) it was 100 to 1000 nM.
As for `CC(C)[C@H](C)n1cc(-c2nc(-c3cnn(C[C@@H](O)CO)c3)cn3nccc23)cn1` [Example 80, (R)-3-(4-(4-(1-((S)-3-methylbutan-2-yl)-1H-pyrazol-4-yl)pyrazolo[1,5-a]pyrazin-6-yl)-1H-pyrazol-1-yl)propane-1,2-diol], the IC50 at JAK3 was in the range of 1000 to 10000 nM.
For `CC[C@@H](C)n1cc(-c2nc(-c3cnn(C(CO)CO)c3)cn3nccc23)cn1` [Example 85, (R)-2-(4-(4-(1-(sec-butyl)-1H-pyrazol-4-yl)pyrazolo[1,5-a]pyrazin-6-yl)-1H-pyrazol-1-yl)propane-1,3-diol], the IC50 on JAK3 lay within 1000 to 10000 nM; on Human Tyk2 kinase domain, 100 to 1000 nM; against JAK1 it was 1000 to 10000 nM.
Take `CC1(C)CCC[C@@H]1n1cc(-c2nc(-c3cnn(C[C@@H](O)CO)c3)cn3nccc23)cn1` [Example 95, (R)-3-(4-(4-(1-((S)-2,2-dimethylcyclopentyl)-1H-pyrazol-4-yl)pyrazolo[1,5-a]pyrazin-6-yl)-1H-pyrazol-1-yl)propane-1,2-diol]: the IC50 against Human Tyk2 kinase domain and against JAK1 (setting [1]) was 1000 to 10000 nM throughout.
`CCC(CC)n1cc(-c2nc(-c3cnn([C@H]4C[C@H](C(=O)NCCO)C4)c3)cn3nccc23)cn1` [Example 171, (1r,3r)-N-(2-hydroxyethyl)-3-(4-(4-(1-(pentan-3-yl)-1H-pyrazol-4-yl)pyrazolo[1,5-a]pyrazin-6-yl)-1H-pyrazol-1-yl)cyclobutanecarboxamide] displayed an IC50 on JAK3 of 1000 to 10000 nM.
Regarding `CC[C@H]([C@@H]1CC1(F)F)n1cc(-c2nc(-c3cnn(C[C@@H](O)CO)c3)cn3nccc23)cn1` [Example 204, (R)-3-(4-(4-(1-((R)-1-((S)-2,2-difluorocyclopropyl)propyl)-1H-pyrazol-4-yl)pyrazolo[1,5-a]pyrazin-6-yl)-1H-pyrazol-1-yl)propane-1,2-diol], the IC50 at JAK3 was 1000 to 10000 nM.
